Results: PubChem BioAssay (NCI)
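Tested at 5 concentrations; 48 h exposure; 96-well plates; endpoints linearly interpolated, else capped at highest concentration. GI50 is the concentration that inhibits growth by half. Definition used: TGI = concentration required for complete inhibition of growth.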

Columns and labels:
Test in all cases: NCI-60 cell line screen, 48 h
HCC-2998 colon = system: HCC-2998 colon
OVCAR-4 ovarian = system: OVCAR-4 ovarian
OVCAR-5 ovarian = system: OVCAR-5 ovarian
SF-268 CNS = system: SF-268 CNS
T-47D breast = system: T-47D breast
NCI-H460 lung = system: NCI-H460 lung
EKVX NSCLC = system: EKVX NSCLC
NCI-H226 lung = system: NCI-H226 lung
K-562 leukemia = system: K-562 leukemia
U251 CNS = system: U251 CNS
ACHN renal = system: ACHN renal
HL-60(TB) leukemia = system: HL-60(TB) leukemia
SK-MEL-5 melanoma = system: SK-MEL-5 melanoma
A549 NSCLC = system: A549 NSCLC
M14 melanoma = system: M14 melanoma
RXF 393 renal = system: RXF 393 renal
MALME-3M melanoma = system: MALME-3M melanoma
A498 renal = system: A498 renal
NCI-H23 lung = system: NCI-H23 lung
OVCAR-8 ovarian = system: OVCAR-8 ovarian
IGROV1 ovarian = system: IGROV1 ovarian
UACC-62 melanoma = system: UACC-62 melanoma
HCT-116 colon = system: HCT-116 colon
PC-3 prostate = system: PC-3 prostate
NCI/ADR-RES ovarian = system: NCI/ADR-RES ovarian
DU-145 prostate = system: DU-145 prostate
KM12 colon = system: KM12 colon
786-0 renal = system: 786-0 renal
HOP-92 NSCLC = system: HOP-92 NSCLC
OVCAR-3 ovarian = system: OVCAR-3 ovarian
COLO 205 colon = system: COLO 205 colon
SK-MEL-2 melanoma = system: SK-MEL-2 melanoma
UO-31 renal = system: UO-31 renal
SF-539 CNS = system: SF-539 CNS
HS 578T breast = system: HS 578T breast
HT29 colon = system: HT29 colon
SF-295 CNS = system: SF-295 CNS
SW-620 colon = system: SW-620 colon
RPMI-8226 leukemia = system: RPMI-8226 leukemia
SK-OV-3 ovarian = system: SK-OV-3 ovarian
MDA-MB-231 breast = system: MDA-MB-231 breast
CAKI-1 renal = system: CAKI-1 renal
HOP-62 NSCLC = system: HOP-62 NSCLC
CCRF-CEM leukemia = system: CCRF-CEM leukemia
NCI-H522 lung = system: NCI-H522 lung
LOX IMVI melanoma = system: LOX IMVI melanoma
BT-549 breast = system: BT-549 breast
HCT-15 colon = system: HCT-15 colon
SNB-19 CNS = system: SNB-19 CNS
UACC-257 melanoma = system: UACC-257 melanoma
SN12C renal = system: SN12C renal
MDA-MB-435 = system: MDA-MB-435
MOLT-4 leukemia = system: MOLT-4 leukemia
MCF7 breast = system: MCF7 breast
SK-MEL-28 melanoma = system: SK-MEL-28 melanoma
SNB-75 CNS = system: SNB-75 CNS
TK-10 renal = system: TK-10 renal

`COc1cccc2c1[C@H](OC)[C@]13O[C@@]1(C2=O)[C@H](O)[C@H](C)[C@@](O)(C(=O)[C@@H]1O[C@H]1C)[C@@H]3O` was tested, and the GI50 (HCC-2998 colon) was 215 nM, the TGI (HCC-2998 colon) was 485 nM and the GI50 (OVCAR-4 ovarian) was 246 nM. The TGI (OVCAR-4 ovarian) was 642 nM, the TGI (OVCAR-5 ovarian) was 859 nM and the GI50 (SF-268 CNS) was 295 nM. The TGI (SF-268 CNS) was 1030 nM, the TGI (T-47D breast) was 1860 nM and the GI50 (NCI-H460 lung) was 326 nM. The TGI (NCI-H460 lung) was 1270 nM, the GI50 (EKVX NSCLC) was 235 nM and the TGI (EKVX NSCLC) was 655 nM. For the same compound, the GI50 (NCI-H226 lung) was 275 nM, the TGI (NCI-H226 lung) was 802 nM and the GI50 (K-562 leukemia) was 326 nM. It also gave a TGI (K-562 leukemia) of over 100000 nM, a TGI (U251 CNS) of over 33000 nM and a GI50 (ACHN renal) of 283 nM. It also gave a TGI (ACHN renal) of 820 nM, a GI50 (HL-60(TB) leukemia) of 238 nM and a TGI (HL-60(TB) leukemia) of 696 nM. The GI50 (SK-MEL-5 melanoma) was 223 nM, the TGI (SK-MEL-5 melanoma) was 507 nM and the GI50 (A549 NSCLC) was 297 nM. For the same compound, the TGI (A549 NSCLC) was 10700 nM, the TGI (M14 melanoma) was 534 nM and the GI50 (RXF 393 renal) was 203 nM. It also gave a TGI (RXF 393 renal) of 461 nM, a GI50 (MALME-3M melanoma) of 200 nM and a TGI (MALME-3M melanoma) of 436 nM. For the same compound, the GI50 (A498 renal) was 215 nM, the TGI (A498 renal) was 542 nM and the GI50 (NCI-H23 lung) was 243 nM. It also gave a TGI (NCI-H23 lung) of 611 nM, a GI50 (OVCAR-8 ovarian) of 317 nM and a TGI (OVCAR-8 ovarian) of over 100000 nM. It also gave a GI50 (IGROV1 ovarian) of 295 nM, a TGI (IGROV1 ovarian) of 894 nM and a GI50 (UACC-62 melanoma) of 263 nM. It also gave a TGI (UACC-62 melanoma) of 765 nM, a TGI (HCT-116 colon) of 1310 nM and a GI50 (PC-3 prostate) of 304 nM. It also gave a TGI (PC-3 prostate) of 1110 nM, a TGI (NCI/ADR-RES ovarian) of 1180 nM and a TGI (DU-145 prostate) of 1130 nM. The TGI (KM12 colon) was 1710 nM, the GI50 (786-0 renal) was 298 nM and the TGI (786-0 renal) was 2060 nM. It also gave a GI50 (HOP-92 NSCLC) of 223 nM, a TGI (HOP-92 NSCLC) of 717 nM and a TGI (OVCAR-3 ovarian) of 824 nM. It also gave a GI50 (COLO 205 colon) of 239 nM, a TGI (COLO 205 colon) of 592 nM and a GI50 (SK-MEL-2 melanoma) of 230 nM. For the same compound, the TGI (SK-MEL-2 melanoma) was 542 nM, the TGI (UO-31 renal) was 800 nM and the TGI (SF-539 CNS) was 698 nM. For the same compound, the GI50 (HS 578T breast) was 283 nM, the TGI (HS 578T breast) was 962 nM and the GI50 (HT29 colon) was 321 nM. It also gave a TGI (HT29 colon) of 1580 nM, a GI50 (SF-295 CNS) of 285 nM and a TGI (SF-295 CNS) of 943 nM. The GI50 (SW-620 colon) was 306 nM, the TGI (SW-620 colon) was over 36000 nM and the GI50 (RPMI-8226 leukemia) was 303 nM. For the same compound, the TGI (RPMI-8226 leukemia) was 866 nM, the GI50 (SK-OV-3 ovarian) was 345 nM and the TGI (SK-OV-3 ovarian) was 2430 nM. The GI50 (MDA-MB-231 breast) was 237 nM, the TGI (MDA-MB-231 breast) was 657 nM and the TGI (CAKI-1 renal) was 909 nM. It also gave a GI50 (HOP-62 NSCLC) of 316 nM, a TGI (HOP-62 NSCLC) of 1790 nM and a GI50 (CCRF-CEM leukemia) of 323 nM. The TGI (CCRF-CEM leukemia) was over 100000 nM, the GI50 (NCI-H522 lung) was 264 nM and the TGI (NCI-H522 lung) was 803 nM. The GI50 (LOX IMVI melanoma) was 180 nM, the TGI (LOX IMVI melanoma) was 351 nM and the TGI (BT-549 breast) was 838 nM. It also gave a GI50 (HCT-15 colon) of 313 nM, a TGI (HCT-15 colon) of 1090 nM and a TGI (SNB-19 CNS) of 1060 nM. The GI50 (UACC-257 melanoma) was 270 nM, the TGI (UACC-257 melanoma) was 818 nM and the GI50 (SN12C renal) was 197 nM. It also gave a TGI (SN12C renal) of 691 nM, a GI50 (MDA-MB-435) of 286 nM and a TGI (MDA-MB-435) of 812 nM. For the same compound, the GI50 (MOLT-4 leukemia) was 335 nM, the TGI (MCF7 breast) was 1120 nM and the GI50 (SK-MEL-28 melanoma) was 271 nM. For the same compound, the TGI (SK-MEL-28 melanoma) was 722 nM, the TGI (SNB-75 CNS) was 605 nM and the GI50 (TK-10 renal) was 261 nM. It also gave a TGI (TK-10 renal) of 921 nM.
